Reference: US20220340598A1, “PYRAZOLOPYRIDINONE COMPOUNDS” (Janssen Pharmaceutica NV, priority 2017, published 2022)

Tests used:
[1] = target: T1, NIH/3T3 cells overexpressing FGFR3 V555M-TACC3 fusion protein (Homo sapiens, UniProt P22607, V555M, cells depend on it); experiment: NIH/3T3 FGFR3 V555M-TACC3 cell proliferation assay; type: cell-based; details: 72-hr incubation, CellTiter Glo; read-out: NIH/3T3 FGFR3 V555M-TACC3 CTG (IC50)
T1 construct: fused on or other part: Q9Y6A5 (Transforming acidic coiled-coil-containing protein 3)
T1 sequence (P22607 whole entry V555M, the tested form may be a part): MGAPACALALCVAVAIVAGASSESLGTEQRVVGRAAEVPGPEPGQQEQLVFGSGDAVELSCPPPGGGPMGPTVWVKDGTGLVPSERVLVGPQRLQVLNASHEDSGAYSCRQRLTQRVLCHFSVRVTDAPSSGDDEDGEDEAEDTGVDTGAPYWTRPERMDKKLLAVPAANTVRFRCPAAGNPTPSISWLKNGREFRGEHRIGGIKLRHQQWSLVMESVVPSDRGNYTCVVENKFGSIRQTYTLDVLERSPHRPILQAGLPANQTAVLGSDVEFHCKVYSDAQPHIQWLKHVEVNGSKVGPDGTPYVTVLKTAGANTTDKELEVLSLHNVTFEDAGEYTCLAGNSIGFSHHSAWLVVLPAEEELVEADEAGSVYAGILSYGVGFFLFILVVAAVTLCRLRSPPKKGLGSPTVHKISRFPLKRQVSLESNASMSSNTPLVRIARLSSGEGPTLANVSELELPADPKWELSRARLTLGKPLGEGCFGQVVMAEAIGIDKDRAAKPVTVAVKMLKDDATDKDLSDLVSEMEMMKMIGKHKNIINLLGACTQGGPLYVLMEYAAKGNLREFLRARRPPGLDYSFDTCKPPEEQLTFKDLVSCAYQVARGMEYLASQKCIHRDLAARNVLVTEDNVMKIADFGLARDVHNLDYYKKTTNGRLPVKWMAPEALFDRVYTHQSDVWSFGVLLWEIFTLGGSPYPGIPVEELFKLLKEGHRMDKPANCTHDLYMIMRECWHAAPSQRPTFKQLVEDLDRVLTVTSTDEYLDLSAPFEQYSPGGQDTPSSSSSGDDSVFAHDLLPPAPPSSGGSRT
Protocol: NIH/3T3 FGFR3 V555M-TACC3 Cell Proliferation Assay
(§1) In day 1, 90 μL of cell suspension (NIH/3T3 cells overexpressing FGFR3 V555M-TACC3 fusion protein) (total 30,000 cells per well in growth medium (DMEM containing 1% Glutamax, 10% FBS and 1% Pen/Strep)) was seeded in a 96-well plate and then incubated overnight at 37° C. and 5% CO2. In day 2, 10 μL of growth medium containing 10-fold stock solution of testing compound was added into cell cultures (9 dose points with 4× serial dilution, starting with 10 μM, 0.1% DMSO final). After 72-hr incubation at 37° C. and 5% CO2, in day 5 a volume of 50 μL CellTiter Glo (CTG) reagent was added into cell-containing 96-well plate and the plate was incubated at room temperature for 10 minutes before RLUs (relative light unit) were measured on a microplate reader with luminescence detection module. The RLU value was normalized to survival % and concentration-response curve was plotted using Prism to calculate IC50 (M), pIC50 (−log IC50) and HillSlope value.

[2] = target: T2, human FGFR3 wild type enzyme (cytoplasmic domain) (Homo sapiens, UniProt P22607); experiment: FGFR3 wild type mobility shift assay (enzymatic assay); type: biochemical; details: 75 μM ATP, 50 minutes at 30° C., Caliper EZ reader II
T2 construct: human FGFR3 wild type enzyme (cytoplasmic domain, from Carna Biosciences)
T2 sequence (P22607 397-806): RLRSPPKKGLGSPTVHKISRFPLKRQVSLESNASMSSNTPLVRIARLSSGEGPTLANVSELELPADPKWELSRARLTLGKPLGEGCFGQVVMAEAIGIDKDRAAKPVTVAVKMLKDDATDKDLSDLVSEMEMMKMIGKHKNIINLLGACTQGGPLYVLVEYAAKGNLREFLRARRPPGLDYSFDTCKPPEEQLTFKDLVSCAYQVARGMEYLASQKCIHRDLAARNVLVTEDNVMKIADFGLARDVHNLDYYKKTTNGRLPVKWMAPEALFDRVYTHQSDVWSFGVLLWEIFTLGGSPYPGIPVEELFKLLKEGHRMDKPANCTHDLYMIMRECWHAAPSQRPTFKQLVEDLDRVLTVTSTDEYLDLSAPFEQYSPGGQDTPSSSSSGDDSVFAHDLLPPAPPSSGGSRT
Protocol: FGFR3 Wild Type Mobility Shift Assay (Enzymatic Assay)
(§2) In a final reaction volume of 25 μL, 0.04 ng/μL human FGFR3 wild type enzyme (cytoplasmic domain, from Carna Biosciences) was incubated with 75 μM ATP, 1 μM FL-peptide 30 substrate and 250 nL of testing compound (1% DMSO final) in assay buffer (100 mM HEPES pH 7.4, 10 mM MgCl2, 0.003% Brij35, 1 mM DTT). After incubation for 50 minutes at 30° C. the reaction was stopped with 10 μL of 0.5M EDTA pH 8.0, and then 25 μL of reaction mixture was transferred to reading plate and measured on Caliper EZ reader II.

[3] = target: T3, NIH/3T3 cells overexpressing FGFR3 WT-TACC3 fusion protein (Homo sapiens, UniProt P22607); experiment: NIH/3T3 FGFR3 WT-TACC3 cell proliferation assay; type: cell-based; details: 72-hr incubation, CellTiter Glo; read-out: NIH/3T3 FGFR3 WT-TACC3 CTG (IC50)
T3 construct: fused on or other part: Q9Y6A5 (Transforming acidic coiled-coil-containing protein 3)
T3 sequence (P22607 whole entry, change not shown, the tested form may be a part): as the sequence (P22607 whole entry V555M, the tested form may be a part) above, with M555V counted along it
Protocol: NIH/3T3 FGFR3 WT-TACC3 Cell Proliferation Assay
as §1, with “WT-TACC3” for “V555M-TACC3”

[4] = target: T4, human FGFR3 V555M enzyme (cytoplasmic domain carrying V555M mutation) (Homo sapiens, UniProt P22607, V555M); experiment: FGFR3 V555M mobility shift assay (enzymatic assay); type: biochemical; details: 30 μM ATP, 45 minutes at 30° C., Caliper EZ reader II
T4 construct: human FGFR3 V555M enzyme (cytoplasmic domain carrying V555M mutation, from Carna Biosciences)
T4 sequence (P22607 397-806 V555M): as the sequence (P22607 397-806) above, with V159M counted along it
Protocol: FGFR3 V555M Mobility Shift Assay (Enzymatic Assay)
as §2, with “FGFR3 V555M” for “FGFR3 wild type”, “(cytoplasmic domain carrying V555M mutation,” for “(cytoplasmic domain,”, “with 30” for “with 75”, “for 45” for “for 50”

COc1ccc2nc(-c3c(NC(C)c4ncccn4)c4nn(C)cc4[nH]c3=O)[nH]c2c1 (single isomer, unassigned) [Compound 1, (S*)-6-(6-Methoxy-1H-benzo[d]imidazol-2-yl)-2-methyl-7-((1-(pyrimidin-2-yl)ethyl)-amino)-2H-pyrazolo[4,3-b]pyridin-5(4H)-one]
GI50 [1]: 4.07 nM
IC50 [2]: 0.75 nM
GI50 [3]: 4.72 nM
IC50 [4]: 0.27 nM

CCn1cc2[nH]c(=O)c(-c3nc4cc(OC)c(OC)cc4[nH]3)c(NC(C)c3cocn3)c2n1 (single isomer, unassigned) [Compound 5A, (S*)-6-(5,6-Dimethoxy-1H-benzo[d]imidazol-2-yl)-2-ethyl-7-((1-(oxazol-4-yl)ethyl)amino)-2H-pyrazolo[4,3-b]pyridin-5(4H)-one]
GI50 [1]: 50.4 nM
IC50 [2]: 7.67 nM
GI50 [3]: 33.6 nM
IC50 [4]: 1.56 nM

CCn1cc2[nH]c(=O)c(-c3nc4cc(OC)c(OC)cc4[nH]3)c(NC(C)c3cocn3)c2n1 (single isomer, unassigned) [Compound 5C, (R*)-6-(5,6-Dimethoxy-1H-benzo[d]imidazol-2-yl)-2-ethyl-7-((1-(oxazol-4-yl)ethyl)amino)-2H-pyrazolo[4,3-b]pyridin-5(4H)-one]
IC50 [2]: 978 nM
IC50 [4]: 315 nM

CC[C@H](Nc1c(-c2nc3ccc(OC)cc3[nH]2)c(=O)[nH]c2cn(C)nc12)c1ncccn1 (single isomer, unassigned) [Compound 16, (S*)-6-(6-Methoxy-1H-benzo[d]imidazol-2-yl)-2-methyl-7-((1-(pyrimidin-2-yl)propyl)amino)-2H-pyrazolo[4,3-b]pyridin-5(4, H)-one]
IC50 [2]: 1360 nM
IC50 [4]: 342 nM

CCn1cc2[nH]c(=O)c(-c3nc4ccc(OC)cc4[nH]3)c(N[C@H](C)c3cocn3)c2n1 (single isomer, unassigned) [Compound 34, (R*)-2-ethyl-6-(6-methoxy-H-benzo[d]imidazol-2-yl)-7-((1-(oxazol-4-yl)ethyl)amino)-2H-pyrazolo[4,3-b]pyridin-5(4H)-one]
IC50 [2]: 39.5 nM
IC50 [4]: 32.8 nM

COCCOc1cc2[nH]c(-c3c(NC(c4ncccn4)C(C)C)c4nn(C)cc4[nH]c3=O)nc2cc1OC (single isomer, unassigned) [Compound 36, (S*)-6(5-methoxy-6-(2-methoxyethoxy)-1H-benzo[d]imidazol-2-yl)-2-methyl-7-((2-methyl-1-(pyrimidin-2-yl)propyl)amino)-2H-pyrazolo[4,3-b]pyridin-5(4H)-one]
GI50 [1]: 21.5 nM
IC50 [2]: 7.75 nM
GI50 [3]: 25 nM

CCC(Nc1c(-c2nc3cc(OC)c(OC)cc3[nH]2)c(=O)[nH]c2cn(CC)nc12)c1ncccn1 (single isomer, unassigned) [Compound 45, (R*)-6-(5,6-dimethoxy-1H-benzo[d]imidazol-2-yl)-2-ethyl-7-((1-(pyrimidin-2-yl)propyl)amino)-2H-pyrazolo[4,3-b]pyridin-5(4H)-one]
IC50 [2]: 602 nM
IC50 [4]: 347 nM

C[C@H](Nc1c(-c2nc3ccc(F)cc3[nH]2)c(=O)[nH]c2cn(C)nc12)c1ncccn1 [Compound 28, (S)-6-(6-Fluoro-1H-benzo[d]imidazol-2-yl)-2-methyl-7-((1-(pyrimidin-2-yl)ethyl)amino)-2H-pyrazolo[4,3-b]pyridin-5(4H)-one]
GI50 [1]: 13.3 nM
IC50 [2]: 7.14 nM
GI50 [3]: 73.8 nM

COc1cc2[nH]c(-c3c(N[C@@H](C)c4ncccn4)c4nn(C)cc4[nH]c3=O)nc2cn1 [Compound 30, (S)-6-(6-methoxy-1H-imidazo[4,5-c]pyridin-2-yl)-2-methyl-7-((1-(pyrimidin-2-yl)ethyl)amino)-2H-pyrazolo[4,3-b]pyridin-5(4H)-one]
GI50 [1]: 7.88 nM
GI50 [3]: 11.1 nM

CCn1cc2[nH]c(=O)c(-c3nc4c(OC)cccc4[nH]3)c(N[C@@H](C)c3ncccn3)c2n1 [Compound 32, (S)-2-ethyl-6-(4-methoxy-1H-benzo[d]imidazol-2-yl)-7-((1-(pyrimidin-2-yl)ethyl)amino)-2H-pyrazolo[4,3-b]pyridin-5(4H)-one]
GI50 [1]: 69.6 nM
GI50 [3]: 43.2 nM

CCn1cc2[nH]c(=O)c(-c3nc4cc(OC)c(OC)cc4[nH]3)c(N[C@@H](C)c3ncccn3)c2n1 [Compound 37, (S)-6-(5,6-dimethoxy-1H-benzo[d]imidazol-2-yl)-2-ethyl-7-((1-(pyrimidin-2-yl)ethyl)amino)-2H-pyrazolo[4,3-b]pyridin-5(4H)-one]
GI50 [1]: 29.6 nM
GI50 [3]: 16.8 nM

CCn1cc2[nH]c(=O)c(-c3nc4c(F)c(OC)c(OC)cc4[nH]3)c(N[C@@H](C)c3ncccn3)c2n1 [Compound 41, (S)-2-ethyl-6-(4-fluoro-5,6-dimethoxy-1H-benzo[d]imidazol-2-yl)-7-((1-(pyrimidin-2-yl)ethyl)amino)-2H-pyrazolo[4,3-b]pyridin-5(4H)-one]
GI50 [1]: 55.6 nM
GI50 [3]: 46.5 nM

CCOc1ccc2nc(-c3c(N[C@@H](C)c4ncccn4)c4nn(CC)cc4[nH]c3=O)[nH]c2c1 [Compound 50, (S)-6-(6-ethoxy-1H-benzo[d]imidazol-2-yl)-2-ethyl-7-((1-(pyrimidin-2-yl)ethyl)amino)-2,4-dihydro-5H-pyrazolo[4,3-b]pyridin-5-one]
GI50 [1]: 40.9 nM
GI50 [3]: 28.7 nM

CCOc1cc2nc(-c3c(N[C@@H](C)c4ncccn4)c4nn(CC)cc4[nH]c3=O)[nH]c2cc1OCC [Compound 52, (S)-6-(5,6-diethoxy-1H-benzo[d]imidazol-2-yl)-2-ethyl-7-((1-(pyrimidin-2-yl)ethyl)amino)-2H-pyrazolo[4,3-b]pyridin-5(4H)-one]
GI50 [1]: 18.8 nM
GI50 [3]: 16.1 nM

CCOc1cc2nc(-c3c(N[C@@H](C)c4ncccn4)c4nn(C)cc4[nH]c3=O)[nH]c2cc1OCC [Compound 53, (S)-6-(5,6-diethoxy-1H-benzo[d]imidazol-2-yl)-2-methyl-7-((1-(pyrimidin-2-yl)ethyl)amino)-2,4-dihydro-5H-pyrazolo[4,3-b]pyridin-5-one]
GI50 [1]: 4.15 nM
GI50 [3]: 3.19 nM

CCn1cc2[nH]c(=O)c(-c3nc4ccc(OCCOC)cc4[nH]3)c(N[C@@H](C)c3ncccn3)c2n1 [Compound 54, (S)-2-ethyl-6-(6-(2-methoxyethoxy)-1H-benzo[d]imidazol-2-yl)-7-((1-(pyrimidin-2-yl)ethyl)amino)-2H-pyrazolo[4,3-b]pyridin-5(4H)-one]
GI50 [1]: 21.6 nM
GI50 [3]: 11.5 nM

COc1cc2[nH]c(-c3c(N[C@@H](C)c4ncccn4)c4nn(C)cc4[nH]c3=O)nc2c(F)c1OC [Compound 55, (S)-6-(4-fluoro-5,6-dimethoxy-1H-benzo[d]imidazol-2-yl)-2-methyl-7-((1-(pyrimidin-2-yl)ethyl)amino)-2H-pyrazolo[4,3-b]pyridin-5(4H)-one]
GI50 [1]: 11.8 nM
GI50 [3]: 17400 nM

COc1cc2nc(-c3c(N[C@@H](C)c4ccccn4)c4nn(C)cc4[nH]c3=O)[nH]c2cc1OC [Compound 56, (S)-6-(5,6-dimethoxy-1H-benzo[d]imidazol-2-yl)-2-methyl-7-((1-(pyridin-2-yl)ethyl)amino)-2H-pyrazolo[4,3-b]pyridin-5(4H)-one]
GI50 [1]: 13.1 nM
GI50 [3]: 18.4 nM
